Measurements published in patent US10206394B2, “Herbicidal compounds” (Syngenta Participations AG, priority 2014, dated 2019).
Like-named read-outs stand apart in the source and are kept apart here.

Tests used:
Experiment in all cases: Glasshouse assay for herbicidal activity (pre- and post-emergence), percentage phytotoxicity
Assay type in all cases: in vivo
Lolium perenne (LOLPE) = settings: Rate 250 g/ha, 100%=total damage, 0%=no damage; for pest or weed control at 250 g/ha: Lolium perenne
Experimental: (§1) Test—Glasshouse Assay for Herbicidal Activity
(§2) Seeds of a variety of monocotyledonous and dicotyledonous test plants are sown in standard soil in pots. The plants are cultivated for one day (for pre-emergence (PRE)) or for about 12 days (for post-emergence (POST)) under controlled conditions in a glasshouse (warm climate species at 24/18° C., cool climate species at 20/16° C., both at day/night; 16 hours light; 65% humidity).
(§3) The test plants are then grown on, in a glasshouse (greenhouse) under controlled conditions (warm climate species at 24/18° C., cool climate species at 20/16° C., both at day/night; 16 hours light; 65% humidity) and are watered twice daily. 15 days after application of the test herbicide (15 DAA) (for post-emergence), and 20 days after application of the test herbicide (20 DAA) (for pre-emergence), the test plants are evaluated visually, and an assessed percentage phytotoxicity score is given for each herbicidal application on each plant species (with 100%=total damage to plant; 0%=no damage to plant).
(§4) The plant species tested are as follows: Alopecurus myosuroides (ALOMY), Avena fatua (AVEFA), Lolium perenne (LOLPE), Echinochloa crus-galli (ECHCG).

Avena fatua (AVEFA) = settings: Rate 250 g/ha, 100%=total damage, 0%=no damage; for pest or weed control at 250 g/ha: Avena fatua
Experimental: as §1, §2, §3, §4

[1] = test system: Echinochloa crus-galli (ECHCG); settings: Rate 250 g/ha, 100%=total damage, 0%=no damage; for pest or weed control at 250 g/ha: Echinochloa crus-galli
Experimental: as §1, §2, §3, §4

[2] = test system: Alopecurus myosuroides (ALOMY); settings: Rate 250 g/ha, 100%=total damage, 0%=no damage; for pest or weed control at 250 g/ha: Alopecurus myosuroides
Experimental: as §1, §2, §3, §4

[3] = post-emergence, assessed visually 15 DAA
[4] = pre-emergence, assessed visually 20 DAA
[5] = post-emergence, 360 h, post-emergence, assessed visually 15 DAA, read-out: Post-emergence herbicidal activity (percentage phytotoxicity) LOLPE POST
[6] = pre-emergence, 480 h, pre-emergence, assessed visually 20 DAA, read-out: Pre-emergence herbicidal activity (percentage phytotoxicity) LOLPE PRE
[7] = post-emergence, 360 h, post-emergence, assessed visually 15 DAA, read-out: Post-emergence herbicidal activity (percentage phytotoxicity) AVEFA POST
[8] = pre-emergence, 480 h, pre-emergence, assessed visually 20 DAA, read-out: Pre-emergence herbicidal activity (percentage phytotoxicity) AVEFA PRE
[9] = post-emergence, 360 h, post-emergence, assessed visually 15 DAA, read-out: Post-emergence herbicidal activity (percentage phytotoxicity) ECHCG POST
[10] = pre-emergence, 480 h, pre-emergence, assessed visually 20 DAA, read-out: Pre-emergence herbicidal activity (percentage phytotoxicity) ECHCG PRE
[11] = post-emergence, 360 h, post-emergence, assessed visually 15 DAA, read-out: Post-emergence herbicidal activity (percentage phytotoxicity) ALOMY POST
[12] = pre-emergence, 480 h, pre-emergence, assessed visually 20 DAA, read-out: Pre-emergence herbicidal activity (percentage phytotoxicity) ALOMY PRE

| Structure (SMILES) | Post-emergence herbicidal activity (percentage phytotoxicity) LOLPE POST (Lolium perenne (LOLPE); [3]) | Pre-emergence herbicidal activity (percentage phytotoxicity) LOLPE PRE (Lolium perenne (LOLPE); [4]) | Post-emergence herbicidal activity (percentage phytotoxicity) AVEFA POST (Avena fatua (AVEFA); [3]) | Pre-emergence herbicidal activity (percentage phytotoxicity) AVEFA PRE (Avena fatua (AVEFA); [4]) | Post-emergence herbicidal activity (percentage phytotoxicity) ECHCG POST [1, 3] | Pre-emergence herbicidal activity (percentage phytotoxicity) ECHCG PRE [1, 4] | Post-emergence herbicidal activity (percentage phytotoxicity) ALOMY POST [2, 3] | Pre-emergence herbicidal activity (percentage phytotoxicity) ALOMY PRE [2, 4] | pest or weed control at 250 g/ha (Lolium perenne (LOLPE); [5]) | pest or weed control at 250 g/ha (Lolium perenne (LOLPE); [6]) | pest or weed control at 250 g/ha (Avena fatua (AVEFA); [7]) | pest or weed control at 250 g/ha (Avena fatua (AVEFA); [8]) | pest or weed control at 250 g/ha [1, 9] | pest or weed control at 250 g/ha [1, 10] | pest or weed control at 250 g/ha [2, 11] | pest or weed control at 250 g/ha [2, 12] |
| --- | --- | --- | --- | --- | --- | --- | --- | --- | --- | --- | --- | --- | --- | --- | --- | --- |
| Cc1cc(-c2cnc(Cl)cn2)cc(C)c1C1C(=O)CC(CC(=O)NCc2cccc(C(F)(F)F)c2)C1=O (stereo not drawn) [Compound A149] | 100% | 90% | 100% | 100% | 100% | 100% | 100% | 80% |  |  |  |  |  |  |  |  |
| Cc1cc(-c2ncc(F)cc2Cl)cc(C)c1C1C(=O)CC(CC(=O)NCc2cccs2)C1=O (stereo not drawn) [Compound A150] |  |  |  |  |  |  |  |  | 70% | 80% | 90% | 50% | 90% | 90% | 70% | 70% |
| Cc1cc(-c2ccc(Cl)nn2)cc(C)c1C1C(=O)CC(CC(=O)NCc2cccs2)C1=O (stereo not drawn) [Compound A151] |  |  |  |  |  |  |  |  | 40% | 80% | 50% | 70% | 70% | 100% | 40% | 40% |
| Cc1cnc(CNC(=O)CC2CC(=O)C(c3c(C)cc(-c4ncc(Cl)cc4F)cc3C)C2=O)cn1 (stereo not drawn) [Compound A152] |  |  |  |  |  |  |  |  | 100% | 90% | 100% | 100% | 90% | 100% | 90% | 70% |
| Cc1cc(-c2ccc(C(F)(F)F)cn2)cc(C)c1C1C(=O)CC(CC(=O)NCc2cccc(C(F)(F)F)c2)C1=O (stereo not drawn) [Compound A153] |  |  |  |  |  |  |  |  | 70% | 60% | 90% | 70% | 90% | 90% | 90% | 30% |
| Cc1cc(-c2cc(Cl)ccn2)cc(C)c1C1C(=O)CC(CC(=O)NCc2cccc(C(F)(F)F)c2)C1=O (stereo not drawn) [Compound A154] |  |  |  |  |  |  |  |  | 70% | 80% | 90% | 60% | 100% | 80% | 80% | 50% |
| Cc1cc(-c2ccc(Cl)nn2)cc(C)c1C1C(=O)CC(CC(=O)NCc2ncccc2Cl)C1=O (stereo not drawn) [Compound A155] |  |  |  |  |  |  |  |  | 70% | 70% | 70% | 100% | 90% | 70% | 50% | 40% |
| Cc1cc(-c2ccc(C#N)cn2)cc(C)c1C1C(=O)CC(CC(=O)NCc2cccs2)C1=O (stereo not drawn) [Compound A156] |  |  |  |  |  |  |  |  | 80% | 80% | 80% | 70% | 100% | 100% | 70% | 60% |
| Cc1cnc(CNC(=O)CC2CC(=O)C(c3c(C)cc(-c4ncc(F)cn4)cc3C)C2=O)cn1 (stereo not drawn) [Compound A157] |  |  |  |  |  |  |  |  | 90% | 70% | 90% | 70% | 100% | 90% | 80% | 60% |
